Consider 19 compounds from ChEMBL document CHEMBL2311411, “Lignans from Schisandra sphenathera Rehd. et Wils. and semisynthetic schisantherin A analogues: absolute configuration, and their estrogenic and anti-proliferative activity” (Eur J Med Chem, 2013).

A short description of data set [1]: Cytotoxicity against human U87 cells after 72 hrs by MTT assay. It is filed as functional, cell-based, U-87MG ATCC. For orientation: Tetrazolium assays rely on reduction of a dye to a coloured formazan, in cell work by metabolically active cells.
The target in data set [2] is T1, DNA-binding protein inhibitor ID-1 (Homo sapiens) (UniProt P41134).
T1 sequence (whole entry): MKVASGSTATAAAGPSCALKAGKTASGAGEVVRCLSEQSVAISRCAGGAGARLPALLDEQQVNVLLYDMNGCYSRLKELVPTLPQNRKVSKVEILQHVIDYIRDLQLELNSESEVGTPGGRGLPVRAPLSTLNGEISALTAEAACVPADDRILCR
Nature of the data set: Inhibition of ID1 in human U87 cells at 100 uM by luciferase reporter gene assay. It is filed as cell-based. The conditions noted are these: U-87MG ATCC. (In general: In a reporter assay the amount or activity of a reporter protein is the signal.)

Data set [3] can be described thus: Toxicity in brine shrimp larvae assessed as mortality after 24 hrs by microtiter plate analysis. The format is organism-based. The conditions noted are these: artemia salina, in vivo.
The test system of data set [4] is HeLa. Nature of the data set: Cytotoxicity against human HeLa cells after 72 hrs by MTT assay. The format is functional, cell-based.
For data set [5], the system named is SMMC-7721. Put plainly: Cytotoxicity against human SMMC7721 cells after 72 hrs by MTT assay. The format is functional, cell-based. The conditions noted are these: SMMC-7721, 72 h.
Data set [6] can be described thus: Cytotoxicity against mouse LLC cells after 72 hrs by MTT assay. The settings on record: Lewis lung carcinoma. The format is functional, cell-based.
The subject of data set [7] is MCF7. Nature of the data set: Estrogenic activity in human MCF7 cells at 1 uM by luciferase reporter gene assay. It is filed as functional, cell-based.
Data set [8] relates to MCF7. Put plainly: Estrogenic activity in human MCF7 cells at 5 uM by luciferase reporter gene assay. It is filed as functional, cell-based.
Data set [9] deals with MCF7. Nature of the data set: Estrogenic activity in human MCF7 cells by luciferase reporter gene assay. The format is functional, cell-based.
The mark [10] stands for this setting: Homo sapiens, U-87 MG, 72 h, read-out: IC50.

The structures appear in SMILES notation. The source made the active and inactive calls. The calls are words filed in the database; no cut-off is given here. Some results are limits rather than exact numbers.

Consider `CCCCCCCCCCCCCCCC(=O)O[C@H]1c2cc(OC)c(OC)c(OC)c2-c2c(cc3c(c2OC)OCO3)C[C@H](C)[C@]1(C)O`, for which the half-inhibitory concentration (IC50) (commonly the midpoint of a concentration-inhibition curve) in data set [1] (u-87mg atcc) is listed as “Not Active”. The inhibition – broadly, the drop in the measured response relative to a control, in per cent – in data set [2] turned out to be 4.8%.
Turning to `COc1cc2c(c(OC)c1OC)-c1c(cc3c(c1OC)OCO3)C[C@H](C)[C@](C)(O)[C@H]2O` [SCHISANTHEROL A], the IC50 result in data set [1] (u-87mg atcc) is recorded as “Not Active”. Also, the inhibition in [2] came out at 1%.
With `COc1ccc([C@H]2OC[C@]3(O)[C@@H](c4ccc(OC)c(O)c4)OC[C@H]23)cc1O`, the 50% lethal concentration (LC50) (usually the concentration lethal to half of the exposed cells or organisms) at 24 h in data set [3] is above 100 µg/mL.
In the case of `COc1cc2c(c(OC)c1OC)-c1c(cc(OC)c(OC)c1OC)C[C@](C)(O)[C@@H](C)C2` [SCHIZANDRIN], the 50% inhibitory concentration (IC50) in data set [4], in data set [5], in data set [6] and in data set [1] (setting [10]) was above 100 µM throughout. The outcome in data set [7] was Active. Also, the 50% lethal concentration (LC50) at 24 h in data set [3] is above 100 µg/mL.
`CC(=O)O[C@@H]1C[C@H](O)[C@@]23CO[C@@H](O)[C@]1(C)[C@@H]2C[C@@H](O)[C@]1(C)[C@@H]3C(=O)[C@H](OC(C)=O)[C@@]2(C)[C@H](c3ccoc3)C[C@H]3O[C@]321` [TOOSENDANIN]: the median lethal concentration (LC50) at 24 h in data set [3] was below 1 µg/mL.
Take `CCCCCCCCCCCC(=O)O[C@H]1c2cc(OC)c(OC)c(OC)c2-c2c(cc3c(c2OC)OCO3)C[C@H](C)[C@]1(C)O`: in data set [1] (setting [10]), the concentration for half-maximal inhibition (IC50) was 70 µM. In addition, the inhibition in [2] was found to be 32.7%.
For the compound `CCCCCCCC(=O)O[C@H]1c2cc(OC)c(OC)c(OC)c2-c2c(cc3c(c2OC)OCO3)C[C@H](C)[C@]1(C)O`, in data set [1] (u-87mg atcc), the IC50 result is recorded as “Not Active”. Besides, the inhibition in [2] is 57.6%.
On to `COc1c2c(cc3c1-c1c(cc4c(c1OC)OCO4)C[C@H](C)[C@H](C)C3)OCO2` [SCHISANDRIN C], for which the IC50 in data set [4], in [5], in data set [6] and in data set [1] (setting [10]) was above 100 µM in each case.
In the case of `CCCCC(=O)O[C@H]1c2cc(OC)c(OC)c(OC)c2-c2c(cc3c(c2OC)OCO3)C[C@H](C)[C@]1(C)O`, in data set [1] (u-87mg atcc), the IC50 result is recorded as “Not Active”. The compound also yielded an inhibition in data set [2] of 36.3%.
Take `CCCC(=O)O[C@H]1c2cc(OC)c(OC)c(OC)c2-c2c(cc3c(c2OC)OCO3)C[C@H](C)[C@]1(C)O`: in data set [1] (u-87mg atcc), the 50% inhibitory concentration (IC50) entry was “Not Active”. This compound also returned an inhibition in [2] of 36.6%.
In the case of `COc1cc(C=O)c(-c2c(C[C@H](C)C(C)=O)cc3c(c2OC)OCO3)c(OC)c1OC`, the half-inhibitory concentration (IC50) entry in data set [1] (u-87mg atcc) was “Not Active”. Further, in data set [2], the inhibition was 46.1%.
Turning to `CCCCCCCCCCCCCC(=O)O[C@H]1c2cc(OC)c(OC)c(OC)c2-c2c(cc3c(c2OC)OCO3)C[C@H](C)[C@]1(C)O`, the IC50 entry in [1] (u-87mg atcc) is given as “Not Active”. In addition, in [2], the inhibition came out at 21.4%.
For `COc1cc([C@H]2OC[C@]3(O)[C@@H](c4ccc(O)c(OC)c4)OC[C@H]23)ccc1O`, the result in [8] was Active.
For the compound `CCCCCC(=O)O[C@H]1c2cc(OC)c(OC)c(OC)c2-c2c(cc3c(c2OC)OCO3)C[C@H](C)[C@]1(C)O`, the half-inhibitory concentration (IC50) in data set [1] (setting [10]) turned out to be 67.4 µM. The compound further returned an inhibition in data set [2] of 63.7%.
Consider `COc1cc2c(c(OC)c1OC)-c1c(cc3c(c1OC)OCO3)C[C@H](C)[C@]1(CO1)[C@H]2OC(=O)c1ccccc1` [SCHISANDRIN A1], for which the 50% inhibitory concentration (IC50) is 50.8 µM in data set [4], above 100 µM in data set [5], above 100 µM in data set [6] and above 100 µM in data set [1] (setting [10]). The LC50 at 24 h in data set [3] was 97.5 µg/mL.
Regarding `CCCCCCCCCC(=O)O[C@H]1c2cc(OC)c(OC)c(OC)c2-c2c(cc3c(c2OC)OCO3)C[C@H](C)[C@]1(C)O`, the IC50 in [1] (setting [10]) stood at 58.8 µM. The compound further came in with an inhibition in data set [2] of 46.9%.
For the compound `C[C@]12CC[C@@H]3c4ccc(O)cc4CC[C@H]3[C@@H]1CC[C@@H]2O`, the Activity result in data set [9] was “Dose-dependent effect”.
`COc1cc([C@H]2OC[C@]3(O)[C@@H](c4ccc(O)c(OC)c4)OC[C@]23O)ccc1O`: the result in [8] was Active.
As to `CCCCCCC(=O)O[C@H]1c2cc(OC)c(OC)c(OC)c2-c2c(cc3c(c2OC)OCO3)C[C@H](C)[C@]1(C)O`, the concentration for half-maximal inhibition (IC50) in [1] (setting [10]) was 61.7 µM. The compound also yielded an inhibition in [2] of 57.8%.
